{"source": "patent US11840686B2", "about": "“Modulation of prekallikrein (PKK) expression” (Ionis Pharmaceuticals, Inc., priority 2013, dated 2023)", "key": {"human PKK mRNA [1]": {"tested_on": "human PKK mRNA", "experiment": "Dose-dependent antisense inhibition of human PKK in HepaRG cells, 0.19-5.00 uM (Example 5)", "format": "cell-based", "conditions": "for percent inhibition of PKK mRNA, 0.19 μM: 0.19 μM antisense oligonucleotide; for percent inhibition of PKK mRNA, 0.56 μM: 0.56 μM antisense oligonucleotide; for percent inhibition of PKK mRNA, 1.67 μM: 1.67 μM antisense oligonucleotide; for percent inhibition of PKK mRNA, 5.00 μM: 5.00 μM antisense oligonucleotide", "experimental": "Cells were plated at a density of 20,000 cells per well and transfected using electroporation with 0.19 μM, 0.56 μM, 1.67 μM, and 5.00 μM concentrations of antisense oligonucleotide. After a treatment period of approximately 16 hours, RNA was isolated from the cells and PKK mRNA levels were measured by quantitative real-time PCR. Human PKK primer probe set RTS3454 was used to measure mRNA levels. PKK mRNA levels were adjusted according to total RNA content, as measured by RIBOGREEN®. The antisense oligonucleotides were tested in a series of experiments that had similar culture conditions.\nThe half maximal inhibitory concentration (IC50) of each oligonucleotide is also presented."}, "human PKK mRNA [2]": {"tested_on": "human PKK mRNA", "experiment": "Antisense inhibition of human PKK mRNA in HepaRG cells, 5,000 nM (Example 2)", "format": "cell-based", "procedure,_shortened": "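qRT-PCR (RTS3454) read-out, RIBOGREEN-normalized; % inhibition vs untreated cells. HepaRG, 20,000 cells/well, electroporation, 5,000 nM ASO, ~24 h.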"}, "[3]": {"conditions": "HepaRG cells, electroporation, approximately 16 hours, Table 36"}, "[4]": {"conditions": "HepaRG cells, electroporation, approximately 16 hours, Table 38"}, "[5]": {"conditions": "4 point dose response, HepaRG cells, Table 38"}, "[6]": {"conditions": "Table 8, HepaRG cells, electroporation with 5,000 nM antisense oligonucleotide, approx. 24 hours, PKK mRNA by RT-PCR (RTS3454), relative to untreated control cells"}, "[7]": {"conditions": "HepaRG cells, electroporation, approximately 16 hours, Table 37"}, "[8]": {"conditions": "Table 34, HepaRG, electroporation, ~16 h"}, "[9]": {"conditions": "HepaRG cells, electroporation, approximately 16 hours, Table 39"}}, "note": "pIC50: −log10 of the molar value. Strand notation (5' to 3'): a small letter for the sugar, then the base; units joined by * are phosphorothioate-linked, units joined directly phosphodiester-linked; [ ] holds rarer units or linkages, { } end groups; capitals alone tell only the bases. e = 2'-O-(2-methoxyethyl) (MOE); [5mC] = 5-methylcytosine; d = 2'-deoxy (DNA)", "data": [{"substance": "547293 (antisense e[5mC]*eA*eT*e[5mC]*eT*dG*dG*d[5mC]*dA*dG*dT*dA*dT*dT*dG*eG*eG*e[5mC]*eA*eT) [compound 547293]", "values": [{"measurement": "percent inhibition of PKK at 0.19 μM", "setting": "human PKK mRNA [1]; [3]", "result": 53, "unit": "%"}, {"measurement": "percent inhibition of PKK at 0.56 μM", "setting": "human PKK mRNA [1]; [3]", "result": 57, "unit": "%"}, {"measurement": "percent inhibition of PKK at 1.67 μM", "setting": "human PKK mRNA [1]; [3]", "result": 80, "unit": "%"}, {"measurement": "percent inhibition of PKK at 5.00 μM", "setting": "human PKK mRNA [1]; [3]", "result": 86, "unit": "%"}, {"measurement": "pIC50", "setting": "human PKK mRNA [1]; 4 point dose response, HepaRG cells, Table 36", "result": 6.70}, {"measurement": "percent inhibition of PKK mRNA, 0.19 μM", "setting": "human PKK mRNA [1]; HepaRG cells", "result": 0, "unit": "%"}, {"measurement": "percent inhibition of PKK mRNA, 0.56 μM", "setting": "human PKK mRNA [1]; HepaRG cells", "result": 45, "unit": "%"}, {"measurement": "percent inhibition of PKK mRNA, 1.67 μM", "setting": "human PKK mRNA [1]; HepaRG cells", "result": 65, "unit": "%"}, {"measurement": "percent inhibition of PKK mRNA, 5.00 μM", "setting": "human PKK mRNA [1]; HepaRG cells", "result": 70, "unit": "%"}, {"measurement": "pIC50", "setting": "human PKK mRNA [1]; HepaRG cells, 0.19-5.00 μM", "result": 5.89}, {"measurement": "% inhibition", "setting": "human PKK mRNA [2]; HepaRG cells, electroporation with 5,000 nM antisense oligonucleotide, approximately 24 hours, PKK mRNA by RT-PCR (RTS3454), relative to untreated control cells, Table 5 experiment", "result": 92, "unit": "%"}]}, {"substance": "546287 (antisense eG*eT*eT*eG*eT*d[5mC]*d[5mC]*d[5mC]*d[5mC]*dA*dG*dT*dG*dT*dT*eA*e[5mC]*eA*e[5mC]*eA) [compound 546287]", "values": [{"measurement": "percent inhibition of PKK at 0.19 μM", "setting": "human PKK mRNA [1]; [4]", "result": 0, "unit": "%"}, {"measurement": "percent inhibition of PKK at 0.56 μM", "setting": "human PKK mRNA [1]; [4]", "result": 15, "unit": "%"}, {"measurement": "percent inhibition of PKK at 1.67 μM", "setting": "human PKK mRNA [1]; [4]", "result": 39, "unit": "%"}, {"measurement": "percent inhibition of PKK at 5.00 μM", "setting": "human PKK mRNA [1]; [4]", "result": 89, "unit": "%"}, {"measurement": "pIC50", "setting": "human PKK mRNA [1]; [5]", "result": 5.77}, {"measurement": "% inhibition", "setting": "human PKK mRNA [2]; [6]", "result": 82, "unit": "%"}]}, {"substance": "546304 (antisense e[5mC]*eT*eT*eT*eT*dA*dT*dT*dT*dG*dT*dG*dA*dG*dA*eA*eA*eG*eG*eT) [compound 546304]", "values": [{"measurement": "percent inhibition of PKK at 0.19 μM", "setting": "human PKK mRNA [1]; [7]", "result": 0, "unit": "%"}, {"measurement": "percent inhibition of PKK at 0.56 μM", "setting": "human PKK mRNA [1]; [7]", "result": 6, "unit": "%"}, {"measurement": "percent inhibition of PKK at 1.67 μM", "setting": "human PKK mRNA [1]; [7]", "result": 51, "unit": "%"}, {"measurement": "percent inhibition of PKK at 5.00 μM", "setting": "human PKK mRNA [1]; [7]", "result": 71, "unit": "%"}, {"measurement": "pIC50", "setting": "human PKK mRNA [1]; 4 point dose response, HepaRG cells, Table 37", "result": 5.68}, {"measurement": "% inhibition", "setting": "human PKK mRNA [2]; Table 9 experiment, HepaRG cells, 20,000 cells per well, electroporation with 5,000 nM antisense oligonucleotide, approx. 24 hours, PKK mRNA by RT-PCR (RTS3454), relative to untreated control cells", "result": 94, "unit": "%"}, {"measurement": "% inhibition", "setting": "human PKK mRNA [2]; Table 10 experiment, HepaRG cells, 20,000 cells per well, electroporation with 5,000 nM antisense oligonucleotide, approx. 24 hours, PKK mRNA by RT-PCR (RTS3454), relative to untreated control cells", "result": 86, "unit": "%"}]}, {"substance": "546253 (eG*eT*e[5mC]*eT*e[5mC]*dT*dT*dG*dG*d[5mC]*dA*dA*dA*d[5mC]*dA*eT*eT*e[5mC]*eA*e[5mC]; antisense) [compound 546253]", "values": [{"measurement": "percent inhibition of PKK at 0.19 μM", "setting": "human PKK mRNA [1]; [8]", "result": 1, "unit": "%"}, {"measurement": "percent inhibition of PKK at 0.56 μM", "setting": "human PKK mRNA [1]; [8]", "result": 13, "unit": "%"}, {"measurement": "percent inhibition of PKK at 1.67 μM", "setting": "human PKK mRNA [1]; [8]", "result": 46, "unit": "%"}, {"measurement": "percent inhibition of PKK at 5.00 μM", "setting": "human PKK mRNA [1]; [8]", "result": 81, "unit": "%"}, {"measurement": "pIC50", "setting": "human PKK mRNA [1]; Table 34, PKK mRNA, HepaRG, electroporation, ~16 h", "result": 5.77}, {"measurement": "% inhibition", "setting": "human PKK mRNA [2]; [6]", "result": 98, "unit": "%"}]}, {"substance": "546834 (eA*eA*e[5mC]*eT*e[5mC]*dT*dA*dA*d[5mC]*dA*dG*dT*dA*dT*d[5mC]*eA*e[5mC]*eT*eG*eT; antisense) [compound 546834]", "values": [{"measurement": "percent inhibition of PKK at 0.19 μM", "setting": "human PKK mRNA [1]; [4]", "result": 1, "unit": "%"}, {"measurement": "percent inhibition of PKK at 0.56 μM", "setting": "human PKK mRNA [1]; [4]", "result": 0, "unit": "%"}, {"measurement": "percent inhibition of PKK at 1.67 μM", "setting": "human PKK mRNA [1]; [4]", "result": 30, "unit": "%"}, {"measurement": "percent inhibition of PKK at 5.00 μM", "setting": "human PKK mRNA [1]; [4]", "result": 83, "unit": "%"}, {"measurement": "pIC50", "setting": "human PKK mRNA [1]; [5]", "result": 5.64}, {"measurement": "% inhibition", "setting": "human PKK mRNA [2]; Table 13, human PKK mRNA in HepaRG cells, 5-10-5 gapmers", "result": 86, "unit": "%"}]}, {"substance": "547636 (eG*eT*eA*eT*e[5mC]*dA*d[5mC]*dT*dG*dT*dA*d[5mC]*dT*dA*dG*eT*eT*eT*eT*e[5mC]; antisense) [compound 547636]", "values": [{"measurement": "percent inhibition of PKK at 0.19 μM", "setting": "human PKK mRNA [1]; [4]", "result": 0, "unit": "%"}, {"measurement": "percent inhibition of PKK at 0.56 μM", "setting": "human PKK mRNA [1]; [4]", "result": 24, "unit": "%"}, {"measurement": "percent inhibition of PKK at 1.67 μM", "setting": "human PKK mRNA [1]; [4]", "result": 79, "unit": "%"}, {"measurement": "percent inhibition of PKK at 5.00 μM", "setting": "human PKK mRNA [1]; [4]", "result": 94, "unit": "%"}, {"measurement": "pIC50", "setting": "human PKK mRNA [1]; [5]", "result": 5.96}, {"measurement": "% inhibition", "setting": "human PKK mRNA [2]; human PKK mRNA, HepaRG cells, 5-10-5 motif oligonucleotides targeting SEQ ID NO: 1 and 10", "result": 86, "unit": "%"}]}, {"substance": "546870 (e[5mC]*eT*eG*eT*eA*d[5mC]*d[5mC]*dT*dA*dT*dA*dA*d[5mC]*dT*d[5mC]*eT*eA*eA*e[5mC]*eA; antisense) [compound 546870]", "values": [{"measurement": "percent inhibition of PKK at 0.19 μM", "setting": "human PKK mRNA [1]; [9]", "result": 35, "unit": "%"}, {"measurement": "percent inhibition of PKK at 0.56 μM", "setting": "human PKK mRNA [1]; [9]", "result": 42, "unit": "%"}, {"measurement": "percent inhibition of PKK at 1.67 μM", "setting": "human PKK mRNA [1]; [9]", "result": 80, "unit": "%"}, {"measurement": "percent inhibition of PKK at 5.00 μM", "setting": "human PKK mRNA [1]; [9]", "result": 95, "unit": "%"}, {"measurement": "pIC50", "setting": "human PKK mRNA [1]; 4 point dose response, HepaRG cells, Table 39", "result": 6.30}, {"measurement": "percent inhibition of PKK mRNA, 0.19 μM", "setting": "human PKK mRNA [1]; HepaRG cells", "result": 36, "unit": "%"}, {"measurement": "percent inhibition of PKK mRNA, 0.56 μM", "setting": "human PKK mRNA [1]; HepaRG cells", "result": 34, "unit": "%"}, {"measurement": "percent inhibition of PKK mRNA, 1.67 μM", "setting": "human PKK mRNA [1]; HepaRG cells", "result": 61, "unit": "%"}, {"measurement": "percent inhibition of PKK mRNA, 5.00 μM", "setting": "human PKK mRNA [1]; HepaRG cells", "result": 91, "unit": "%"}, {"measurement": "pIC50", "setting": "human PKK mRNA [1]; HepaRG cells, 0.19-5.00 μM", "result": 6.00}, {"measurement": "% inhibition", "setting": "human PKK mRNA [2]; human PKK mRNA in HepaRG cells, 5-10-5 gapmers, Table 14", "result": 87, "unit": "%"}]}]}
